In US20120122913A1, “COMBINATION OF CURCUMINOIDS AND MTOR INHIBITORS FOR THE TREATMENT OF TAUOPATHIES” (Institut National De La Recherche Scientifque, priority 2009, published 2012):

Legend:
[1] = test system: Tau protein; test: Total Tau protein level by Western blot in differentiated SH-SY5Y cells exposed to β-amyloid(1-42); format: cell-based, human; conditions: 48 h
Experimental: Chemical treatments were initiated and kept for 48 h.
On day 8, cells were observed under an inverted microscope to ensure that they are fully adherent and free of microbial contamination. On day 9, Petri dishes were used for Western Blot analyses. […] Cells were then removed with a cell scraper, transferred to a 0.6 ml microtube and kept on ice. Samples were sonicated for 30 seconds and mixed with a vortex for 5 seconds and the procedure was repeated once. Samples obtained were stored at −80 ° C. in aliquots of 20 μl. For SDS-PAGE analysis, samples (20 μl) were mixed with 7.34 μl of 4× SDS gel loading buffer (200 mM Tris-HCl, pH 6.8, 8% SDS, 20% Glycerol, 0.4% bromophenol blue and 400 mM β-mercaptoethanol) and 2 μl of cell lysing buffer, boiled for 10 min, cooled on ice, spun on a microcentrifuge and transferred to wells of an electrophoresis apparatus containing a 4% acrylamide stacking gel and a 8% acrylamide resolving gel. Electrophoresis protein separation was performed overnight using a constant current (40 V). Proteins were transferred to nitrocellulose by electro-blotting in a 20% methanol-transfer buffer with a constant 900 mA current for 90 min. Ponceau Red staining was performed to evaluate the quality of loading and transfer. […] The membrane was then washed 4 times for 5 min each time with TBS-0.1% Tween™, and soaked with the chemiluminescence substrate (Enhanced Luminol™ from PerkinElmer). X-Ray films were exposed to the membranes long enough to optimize each band detection. Band Intensity was quantified using a Fluor-S Multimager™ (Bio-Rad scanner) and the Quantity One™ software (Bio-Rad) and data adjusted with local background.

[2] = test system: differentiated SH-SY5Y cells; test: MTT cell viability assay in differentiated SH-SY5Y cells exposed to β-amyloid(1-42); conditions: 48 h
Experimental: For the cytotoxicity assay, 48 well-plates were seeded with 180,000 cells and 500 μl of culture medium was added. Five Petri dishes (or 6-well plates) were prepared for each treatment. […] On day 7, the culture medium was removed and changed with a medium free of retinoic acid and FBS, but containing 2 nM of BDNF (Sigma Cat. No. B3795), from a 2 μM master solution in filtered sterile water). Chemical treatments were initiated and kept for 48 h. […] The Human Beta Amyloid (Aβ(1-42), Chemicon Cat. No. AG972) solution was prepared according to the manufacturer's instructions. […] The solution was subsequently diluted in serum-deprived culture medium containing BDNF (2 nM final concentration) to obtain either a 5 nM or 5 μM Aβ(1-42) final concentration.
In parallel, on day 9, plates were used for the MTT cell viability assay. A volume of 62.5 μl of a 3-(4,5-Dimethylthiazol-2-yl)-2,5-diphenyltetrazolium bromide (MTT) solution (5 mg/ml in a 1:1 PBS/culture medium) was added, then plates were incubated for 4 h. A volume of 312.5 μl of isopropanol—0.1N HCl was added, then for each well the content was mixed using a pipette (wide bore tip) to solubilize the product. The optical density at 560 nm, which is proportional to the number of living cells, was measured (reference at 690 nm).

CO[C@H]1C[C@@H]2CC[C@@H](C)[C@@](O)(O2)C(=O)C(=O)N2CCCC[C@H]2C(=O)O[C@H]([C@H](C)C[C@@H]2CC[C@@H](OC(=O)C(C)(CO)CO)[C@H](OC)C2)CC(=O)[C@H](C)/C=C(\C)[C@@H](O)[C@@H](OC)C(=O)[C@H](C)C[C@H](C)/C=C/C=C/C=C/1C [Temsirolimus]
reduction in the total amount of Tau protein as compared to controls ([1]; 2 nM Temsirolimus, 5 nM human β-amyloid(1-42), FIG. 5): 5.3%
cytotoxicity (cell viability, MTT) ([2]; 2 nM Temsirolimus, 5 nM β-amyloid(1-42), FIG. 6): none of these three treatments were cytotoxic

COc1cc(/C=C/C(=O)CC(=O)/C=C/c2ccc(O)c(OC)c2)ccc1O [curcumin, (E,E)-1,7-bis(4-Hydroxy-3-methoxyphenyl)-1,6-heptadiene-3,5-dione]
reduction in the total amount of Tau protein as compared to controls ([1]; 10 μM curcumin, 5 μM human β-amyloid(1-42), FIG. 3): 0.5%
reduction in the total amount of Tau protein as compared to controls ([1]; 15 μM curcumin, 5 nM human β-amyloid(1-42), FIG. 5): 6.7%
reduction in the total amount of Tau protein as compared to controls ([1]; 20 μM curcumin, 5 nM human β-amyloid(1-42), FIG. 1): 2.1%
cytotoxicity (cell viability, MTT) ([2]; 10 μM curcumin, 5 μM β-amyloid(1-42), FIG. 4): none of these three treatments were cytotoxic
cytotoxicity (cell viability, MTT) ([2]; 15 μM curcumin, 5 nM β-amyloid(1-42), FIG. 6): none of these three treatments were cytotoxic
cytotoxicity (cell viability, MTT) ([2]; 20 μM curcumin, 5 nM β-amyloid(1-42), FIG. 2): none of these three treatments were cytotoxic

CO[C@H]1C[C@@H]2CC[C@@H](C)[C@@](O)(O2)C(=O)C(=O)N2CCCC[C@H]2C(=O)O[C@H]([C@H](C)C[C@@H]2CC[C@@H](OCCO)[C@H](OC)C2)CC(=O)[C@H](C)/C=C(\C)[C@@H](O)[C@@H](OC)C(=O)[C@H](C)C[C@H](C)/C=C/C=C/C=C/1C [Everolimus]
reduction in the total amount of Tau protein as compared to controls ([1]; 1 nM Everolimus, 5 μM human β-amyloid(1-42), FIG. 3): 17.2%
reduction in the total amount of Tau protein as compared to controls ([1]; 2 nM Everolimus, 5 nM human β-amyloid(1-42), FIG. 1): 18.7%
cytotoxicity (cell viability, MTT) ([2]; 1 nM Everolimus, 5 μM β-amyloid(1-42), FIG. 4): none of these three treatments were cytotoxic
cytotoxicity (cell viability, MTT) ([2]; 2 nM Everolimus, 5 nM β-amyloid(1-42), FIG. 2): none of these three treatments were cytotoxic
